Measurements as given in patent US20050227249A1, “Polymorphisms in the human MDR-1 gene and their use in diagnostic and therapeutic applications” (priority 1999, published 2005).
Where “and” joins values, the source holds several entries; their conditions need not be identical. Equal values may be shown once.

Assays:
[1] = Phenytoin blood levels in patients by 2C9/2C19 and MDR-1 exon 26 (C3435T) genotype; format: in vivo, human
[2] = digoxin maximum plasma concentration (Cmax) at steady state after oral application, by MDR-1 exon 26 genotype; format: in vivo, human; conditions: 7 T/T vs 7 C/C volunteers, T/T higher, p=0.006
Method: For a further validation of the correlation of MDR-1 genotype with intestinal digoxin uptake, additional volunteers of another clinical study at the University Medical Center, Charite in Berlin that addresses blood levels of digoxin after oral application (without rifampin induction and PGP protein determination, Johne et al. (1999), Clin.
In this study, maximum plasma concentrations (Cmax) were evaluated during steady state conditions of digoxin.

[3] = molecular target: T1, MDR-1 (Homo sapiens, UniProt P08183); assay: clinical; set-up: from tissue; host or cells: colon (intestine) of human probands, in vivo; conditions: in vivo, po, 1 mg, digoxin concentration in blood (Dig AUC)
Description: To identify potential direct correlations of MDR-1 polymorphisms with clinical relevant phenotypes in humans, probands from a study at the Dr. Margarete Fischer-Bosch-Institut for Clinical Pharmacology in Stuttgart, were subjected to the determination of MDR-1 polymorphisms as described in examples 2-4. The expression levels of MDR-1 in the colon and liver of these patients was also estimated by established immunohistochemical detection of the MDR-1 protein. In the proband population, in addition to measurements of the expression levels of MDR-1 in the colon, measurements of MDR-1 upon induction of the gene by rifampicine were performed. Also, the in vivo activity of MDR-1 under noninduced and rifampicine induced conditions was determined by measuring the blood concentrations of orally administered digoxin (1 mg), which is a known MDR-1 substrate and whose blood concentration also depends on the MDR-1 activity in the colon. The results of the MDR-1 measurements, rifampicine induction experiments and digoxin-experiments, as well as results from the MDR-1 polymorphism detection analysis in the proband population show correlations between MDR-1 gene expression and MDR-1 in vivo activity with certain polymorphisms. […]

[4] = molecular target: T1, MDR-1; assay: clinical; set-up: The expression levels of MDR-1 in the colon and liver of these patients was also estimated by established immunohistochemical detection; from tissue; host or cells: colon (intestine) of human probands, in vivo; conditions: in vivo
Description: To identify potential direct correlations of MDR-1 polymorphisms with clinical relevant phenotypes in humans, probands from a study at the Dr. Margarete Fischer-Bosch-Institut for Clinical Pharmacology in Stuttgart, were subjected to the determination of MDR-1 polymorphisms as described in examples 2-4. The expression levels of MDR-1 in the colon and liver of these patients was also estimated by established immunohistochemical detection of the MDR-1 protein. In the proband population, in addition to measurements of the expression levels of MDR-1 in the colon, measurements of MDR-1 upon induction of the gene by rifampicine were performed. Also, the in vivo activity of MDR-1 under noninduced and rifampicine induced conditions was determined by measuring the blood concentrations of orally administered digoxin (1 mg), which is a known MDR-1 substrate and whose blood concentration also depends on the MDR-1 activity in the colon. The results of the MDR-1 measurements, rifampicine induction experiments and digoxin-experiments, as well as results from the MDR-1 polymorphism detection analysis in the proband population show correlations between MDR-1 gene expression and MDR-1 in vivo activity with certain polymorphisms.
This was done by measuring the blood concentrations of orally administered digoxin which is a known MDR-1 substrate and whose blood concentration also depends on the MDR-1 activity in the colon. […] The probands that harbor the T allele (correlates with weaker MDR-1 expression, see Tab. 4), contain higher blood levels of digoxin compared to samples which have only the corresponding homozygous C-allele. […] This is totally consistent with the function of MDR-1 in the colon, i.e. re-transport and elimination of substrates from the uptaking cells into the lumen of the colon. […] The difference of the digoxin blood levels between these individuals was more than 4-fold.

[5] = test system: MDR-1; assay: MDR-1 (PGP) protein levels in probands upon induction by rifampicine, immunohistochemical detection; format: in vivo, human; conditions: for PGP concentration, mean / PGP concentration: rifampicine-induced probands; for PGP concentration: individual probands
Method: The expression levels of MDR-1 in the colon and liver of these patients was also estimated by established immunohistochemical detection of the MDR-1 protein. In the proband population, in addition to measurements of the expression levels of MDR-1 in the colon, measurements of MDR-1 upon induction of the gene by rifampicine were performed. Also, the in vivo activity of MDR-1 under noninduced and rifampicine induced conditions was determined by measuring the blood concentrations of orally administered digoxin (1 mg), which is a known MDR-1 substrate and whose blood concentration also depends on the MDR-1 activity in the colon.

T1 sequence (P08183 whole entry): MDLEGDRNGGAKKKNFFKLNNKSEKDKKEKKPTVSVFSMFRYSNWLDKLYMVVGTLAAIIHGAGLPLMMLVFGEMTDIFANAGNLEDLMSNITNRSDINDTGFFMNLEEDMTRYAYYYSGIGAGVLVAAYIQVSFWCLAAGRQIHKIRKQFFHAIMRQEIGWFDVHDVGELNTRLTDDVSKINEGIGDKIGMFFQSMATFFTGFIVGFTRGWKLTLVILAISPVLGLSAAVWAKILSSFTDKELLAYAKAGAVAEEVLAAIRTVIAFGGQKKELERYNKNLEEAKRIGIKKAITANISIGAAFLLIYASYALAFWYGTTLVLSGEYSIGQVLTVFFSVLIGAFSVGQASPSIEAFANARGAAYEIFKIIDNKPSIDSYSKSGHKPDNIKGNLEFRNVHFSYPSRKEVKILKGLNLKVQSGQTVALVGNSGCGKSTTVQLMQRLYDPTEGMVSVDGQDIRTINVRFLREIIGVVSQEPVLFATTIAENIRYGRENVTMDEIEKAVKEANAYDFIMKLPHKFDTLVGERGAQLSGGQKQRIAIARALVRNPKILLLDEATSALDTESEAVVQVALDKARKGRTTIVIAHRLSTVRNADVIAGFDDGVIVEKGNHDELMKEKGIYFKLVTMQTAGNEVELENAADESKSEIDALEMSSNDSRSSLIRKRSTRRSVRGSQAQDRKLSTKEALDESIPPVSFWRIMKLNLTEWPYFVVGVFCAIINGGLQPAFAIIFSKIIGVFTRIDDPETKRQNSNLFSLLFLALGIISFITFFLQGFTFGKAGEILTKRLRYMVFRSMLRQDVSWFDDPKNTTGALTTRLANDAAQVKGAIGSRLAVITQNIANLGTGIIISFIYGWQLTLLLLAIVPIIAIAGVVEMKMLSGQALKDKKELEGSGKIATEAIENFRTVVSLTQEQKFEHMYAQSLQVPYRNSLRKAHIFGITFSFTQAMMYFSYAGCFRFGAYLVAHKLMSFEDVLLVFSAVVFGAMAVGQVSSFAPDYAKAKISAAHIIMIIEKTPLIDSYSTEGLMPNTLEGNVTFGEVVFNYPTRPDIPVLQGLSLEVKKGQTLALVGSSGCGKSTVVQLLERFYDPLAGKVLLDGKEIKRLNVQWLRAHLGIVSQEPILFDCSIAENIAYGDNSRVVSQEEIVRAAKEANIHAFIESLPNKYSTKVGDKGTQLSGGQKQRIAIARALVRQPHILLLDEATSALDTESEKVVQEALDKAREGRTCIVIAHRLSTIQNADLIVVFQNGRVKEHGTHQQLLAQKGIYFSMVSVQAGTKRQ

Compound: O=C1NC(=O)C(c2ccccc2)(c2ccccc2)N1 [Phenytoin]
- highest blood concentration, increase compared to the normal population ([1]; 2C9 deficient patient with low PGP (T/T) genotype, within a group of 100 patients): about twofold
- Phenytoin blood levels ([1]; 2C9 normal metabolizers, MDR-1 genotype CC and CT (intestinal PGP high/medium)): normal
- Phenytoin blood levels ([1]; 2C9 normal metabolizers, MDR-1 genotype TT (intestinal PGP low)): normal
- Phenytoin blood levels ([1]; 2C9 weak and/or deficient metabolizers, MDR-1 genotype CC and CT (intestinal PGP high/medium)): high
- Phenytoin blood levels ([1]; 2C9 weak and/or deficient metabolizers, MDR-1 genotype TT (intestinal PGP low)): VERY HIGH

Compound: C[C@H]1O[C@@H](O[C@H]2[C@@H](O)C[C@H](O[C@H]3[C@@H](O)C[C@H](O[C@H]4CC[C@@]5(C)[C@H](CC[C@@H]6[C@@H]5C[C@@H](O)[C@]5(C)[C@@H](C7=CC(=O)OC7)CC[C@]65O)C4)O[C@@H]3C)O[C@@H]2C)C[C@H](O)[C@@H]1O [digoxin]
- mean difference in digoxin Cmax between T/T and C/C groups [2]: 38%
- AUC [3]: 63.6 ng·h/mL
- difference of the digoxin blood levels between homozygous T and homozygous C proband [4]: more than 4 fold
- highest rif-induced dig blood level [4]: 12.3
- lowest rif-induced dig blood level [4]: 57.3

Compound: CO[C@H]1/C=C/O[C@@]2(C)Oc3c(C)c(O)c4c(O)c(c(/C=N/N5CCN(C)CC5)c(O)c4c3C2=O)NC(=O)/C(C)=C\C=C\[C@H](C)[C@H](O)[C@@H](C)[C@@H](O)[C@@H](C)[C@H](OC(C)=O)[C@@H]1C [rifampicine]
- highest rif-induced activity (PGP concentration) ([5]; proband homozygous C/C at position 176): 1264.9
- lowest rif-induced activity (PGP concentration) ([5]; proband homozygous T/T at position 176): 142.1
- difference of induced MDR-1 expression levels between homozygous C and homozygous T proband ([5]; rifampicin-induced, highest (C/C) vs lowest (T/T) proband): 9 fold
- PGP concentration, mean ([5]; T-allele absent (C/C only)): 924 relative units
- PGP concentration, mean ([5]; T-allele present (T/T and T/C)): 587 relative units
- PGP concentration ([5]; T-allele absent (C/C only)): 423 relative units and 1264 relative units and 1086 relative units
- PGP concentration ([5]; T-allele present (T/T and T/C) at position 176 in exon 26): 142 relative units and 1085 relative units and 520 relative units and 601 relative units
